Test results reported in patent US10143686B2, “Oxidosqualene cyclase as a protein target for anticancer therapeutics” (The Curators of the University of Missouri, priority 2010, dated 2018).
Where a name gives a salt, the structure may show the parent alone. Read-outs that look alike come from different tables or passages of the source.

Assays:
Type in all cases: cell-based
[1] = test system: DU145 prostate cancer cells; experiment: SRB cell viability assay, DU145; conditions: Homo sapiens
Method: (§1) The effect of OSC inhibition was evaluated in additional cancer cell lines as well. Cancer cell lines may be purchased from ATCC (Manassas, Va.). The SRB assay has been employed for determination of the inhibitory effects of RO 48-8071 on growth of different cancer cells. Cells were seeded into 96-well plates and incubated overnight at 37° C. with 5% CO2. The culture medium was removed after 24 hours, and cells were washed with DMEM/F12 medium and then treated with various concentrations of RO 48-8071 in 5% FBS culture medium for 24 and 48 hours. Surviving or adherent cells were fixed in situ by withdrawing the growth medium, adding 100 μl PBS and 100 μl 50% trichloroacetic acid and then incubating at 4° C. for one hour. Cells were washed with ice-cold water, dried at room temperature (RT), and then stained with 50 μl 4% SRB for eight minutes at RT. Unbound dye was removed by washing with cold 1% acetic acid for five times, and plates were dried at RT. Bound stain was solubilized with 150 μl 10 mM Tris buffer and absorbance of samples was read at 520 nm with a SpecTRA MAX 190 microplate reader (Molecular Devices, Sunnyvale, Calif.). Six wells were used for each concentration, and each experiment was performed two to three times.
Effect of RO 48-8071 on prostate cancer cell line DU145 viability. […] The culture mediums employed 10% FBS EMEM for culture and 5% FBS EMEM for treatment.

[2] = test system: LoVo colon cancer cells; experiment: SRB cell viability assay, LoVo; conditions: Homo sapiens
Method: as §1
Effect of RO 48-8071 on colon cancer cell LoVo viability. […] The culture mediums employed 10% FBS F-12K for culture and 5% FBS F-12K for treatment.

[3] = test system: NCI-H23 lung cancer cells; experiment: SRB cell viability assay, NCI-H23; conditions: Homo sapiens
Method: as §1
Effect of RO 48-8071 on lung cancer cell line H23 viability. […] The culture mediums employed 10% FBS RPMI-1640 for culture and 5% FBS RPMI-1640 for treatment.

[4] = test system: normal mammary AG11132A cells; experiment: SRB cell viability assay, normal mammary cells; conditions: 24 hours, FIG. 3
Method: The sulforhodamine B (SRB) assay was employed to evaluate the effect of OSC inhibitor Ro 48-8071 on viability of breast cancer and normal mammary gland cells with slight modification of the original procedure established at NCI. Accordingly, the cells were seeded in 96-well plates in 100 μl culture medium and incubated overnight at 37° C. with 5% CO2. […] The surviving or adherent cells were fixed in situ by withdrawing the growth medium and adding 100 μl of PBS and 100 μl of 50% cold trichloroacetic acid and then incubating at 4° C. for 1 h. The surviving cells were washed with ice-water, dried at room temperature (RT), and then stained with 50 μl 4% SRB for 8 min at RT. Unbound dye was removed by washing 5 times with cold 1% acetic acid, and the plates were dried at RT. Bound stain was solubilized with 150 μl 10 mM Tris buffer, and absorbance of samples were measured at 520 nm with a SpecTRA MAX 190 microplate reader (Sunnyvale, Calif.). In these experiments on BT-474, T47-D, and AG11132A cell lines, six wells were used for each concentration, and each experiment was performed at least twice.

[5] = test system: BT-474, MCF-7, BT-20 and MDA-231 human breast cancer cells; experiment: Annexin V / PI apoptosis assay, breast cancer cells; conditions: 24 hours
Text: Apoptosis is a normal physiologic process which occurs during embryonic development as well as in maintenance of tissue homeostasis. The apoptotic program is characterized by certain morphologic features, including loss of plasma membrane asymmetry and attachment, condensation of the cytoplasm and nucleus, and internucleosomal cleavage of DNA. […]. In apoptotic cells, the membrane phospholipid phosphatidylserine (PS) is translocated from the inner to the outer leaflet of the plasma membrane, thereby exposing PS to the external cellular environment. Annexin V is a 35-36 kDa Ca2+ dependent phospholipid-binding protein that has a high affinity for PS, and binds to cells with exposed PS. Annexin V may be conjugated to fluorochromes including FITC. […]
FITC Annexin V staining precedes the loss of membrane integrity which accompanies the latest stages of cell death resulting from either apoptotic or necrotic processes. […] However, when apoptosis is measured over time, cells can be often tracked from FITC Annexin V and PI negative (viable, or no measurable apoptosis), to FITC Annexin V positive and PI negative (early apoptosis, membrane integrity is present) and finally to FITC Annexin V and PI positive (end stage apoptosis and death). […]

[6] = 24 hours, read-out: IC50 (μM) (24 hours)
[7] = 48 hours, read-out: IC50 (μM) (48 hours)

Q: How did the IC50 ([1]; DU-145, 24 hours, read-out: IC50 (μM) (24 hours)) turn out when `C=CCN(C)CCCCCCOc1ccc(C(=O)c2ccc(Br)cc2)c(F)c1` [Ro 48-8071, 4′-[6-(Allylmethylamino)hexyloxy]-4-bromo-2′-fluorobenzophenone fumarate] was run?
A: 13.5 ± 0.895 µM

Q: And the IC50 ([1]; DU-145, 48 hours, read-out: IC50 (μM) (48 hours))?
A: 8.61 ± 0.455 µM

Q: And the IC50 [2, 6]?
A: 9.461 ± 0.07 µM

Q: And the IC50 [2, 7]?
A: 3.27 ± 0.541 µM

Q: And the IC50 [3, 6]?
A: 14.2 ± 1.28 µM

Q: What about the IC50 [3, 7] of the same compound?
A: 10.3 ± 0.303 µM

Q: And the “inhibition of normal mammary cell viability compared with BT-474” value [4]?
A: significantly less inhibition

Q: What about the “apoptosis and cell death (annexin V / PI positive cells)” value [5] of the same compound?
A: Induces Apoptosis and Cell Death
